Structures can show the parent of a compound that is named as a salt. Where two headings read alike, the source gives them in different places.
Experiments:
Type in all cases: physicochemical
[1] = Equilibration under a temperature cycle (XRPD); settings: 2-methyltetrahydrofuran, about 8 cycles
Method: The equilibration was executed with a stirring bar on a magnetic stirring plate at a rate of 300 rpm. The obtained suspensions were filtered through a 0.45 µm nylon membrane filter by centrifugation at 14,000 rpm. Solid parts (wet cakes) were investigated by XRPD.

[2] = Characterization of salt forms (XRPD, DSC, TGA, KF, HPLC, NMR/IC); settings: for Melting onset (DCS, ° C.): Tonset
Method: Salt Forms identified in the investigation (Table 16) were further characterized by XRPD, DCS, TGA, KF, HPLC and ^1H NMR/IC (Table 19).
About 419 mg of sodium salt Form F was obtained as off-white solid in 76% yield.

[3] = Bulk stability of sodium salt Form F (1 week stress); settings: for Bulk (XRPD) / Color / Purity, Bulk (HPLC): Solid state; for Decrease in chemical purity: one week stress at 25° C./92% RH
Method: Sodium salt Form F was placed at 25° C./92% RH in an open container, at 40° C./75% RH in an open container and at 60RC in a closed container for 1 week. Samples after the stress were characterized by XRPD and HPLC and inspected for color change.

[4] = Photostability evaluation of sodium salt Form F
[5] = Solubility in aqueous pH buffers and bio-relevant fluids at 37° C.; settings: for XRPD 24 h: residual solid
Method: Solubility of the Form B and sodium salt Form F was measured in 7 aqueous pH buffers and bio-relevant fluids including pH 1.2 HCl solution (0.2N), pH 4.5 acetate buffer (50 mM), pH 6.8 phosphate buffer (50 mM), pH 2.0 SGF, pH 6.5 FaSSIF-v1, pH 5.0 FeSSIF-v1 and water at 37° C. for 2 h and 24 h, respectively.
Accurate 20 mg of the Form B was weighed into a 20 mL glass vial. Then, 10 mL of solubility medium was added. The sodium salt Form F amount used was equivalent to 20 mg anhydrous form. Obtained suspensions were stirred at 37° C. at 400 rpm and sampled at 2 hours and at 24 hours, respectively. The samples were centrifuged at 37° C. at 4,000 rpm for 4 min. Supernatants were analyzed by HPLC and pH meter for solubility and pH value, respectively. Residual solids (wet cakes) from the 24 hours samples were also characterized by XRPD to determine physical form.

[6] = Hygroscopicity of sodium salt Form F by DVS at 25° C.; settings: for Form and crystallinity change after DVS test: DVS 25° C.
Method: Hygroscopicity of sodium salt Form F was evaluated by dynamic vapor sorption (DVS) test at 25° C.

[7] = 25° C./92% RH, open container, 1 week
[8] = 40° C./75% RH, open container, 1 week
[9] = 60° C., tight container, 1 week
[10] = Solid state, photo (visible light, 1.2 million lux-hrs)
[11] = FaSSIF-v1, pH 6.5, 37° C., LOQ: 1.5 μg/mL
[12] = pH 1.2 HCl solution (0.2N), 37° C.
[13] = pH 4.5 acetate buffer (50 mM), 37° C.
[14] = pH 4.5 acetate buffer (50 mM), 37° C., LOQ: 1.5 μg/mL
[15] = pH 6.8 phosphate buffer (50 mM), 37° C.
[16] = pH 6.8 phosphate buffer (50 mM), 37° C., LOQ: 1.5 μg/mL

CCN(C)S(=O)(=O)Nc1ccc(F)c(Oc2ccc3ncn([C@H]4COC5(CCN(C(=O)CC6(O)CCN(c7cc8c(cc7F)c(N7CCC(=O)NC7=O)nn8C)CC6)CC5)C4)c(=O)c3c2)c1C#N [Compound 1 Form C]
Form conversion on temperature cycling [1]: converted to more stable Form B | Form conversion on temperature cycling ([1]; listed as Form C): converted to anhydrate Form B

CCN(C)S(=O)(=O)Nc1ccc(F)c(Oc2ccc3ncn([C@H]4COC5(CCN(C(=O)CC6(O)CCN(c7cc8c(cc7F)c(N7CCC(=O)NC7=O)nn8C)CC6)CC5)C4)c(=O)c3c2)c1C#N [Compound 1 potassium salt Form H]
Enthalpy (DSC, J/g) [2]: 33.48 J/g | Melting onset (DCS, ° C.) [2]: Tonset 221.7 °C | Weight loss (TGA) ([2]; at 170° C.): 6.6% at

CCN(C)S(=O)(=O)[N-]c1ccc(F)c(Oc2ccc3ncn([C@H]4COC5(CCN(C(=O)CC6(O)CCN(c7cc8c(cc7F)c(N7CCC(=O)NC7=O)nn8C)CC6)CC5)C4)c(=O)c3c2)c1C#N.[Na+] [Compound 1 sodium salt Form F]
Crystallinity change ([3]; 60° C. in a tight/closed container, 1 week): slight crystallinity decrease | Bulk (XRPD) [3, 7]: No form change | Color [3, 7]: No change of color | Purity, Bulk (HPLC) [3, 7]: 97.7% | Bulk (XRPD) [3, 8]: No form change | Color [3, 8]: No change of color | Purity, Bulk (HPLC) [3, 8]: 98.5% | Bulk (XRPD) [3, 9]: No form change, slight crystallinity decrease | Color [3, 9]: No change of color | Purity, Bulk (HPLC) [3, 9]: 98.9% | Decrease in chemical purity ([3]; listed as Form F): 1.2% | Decrease in chemical purity ([3]; listed as Sodium salt Form F): about 1.2% | Morphic form stability (form change) ([3]; one week, 25° C./92% RH open, 40° C./75% RH open, 60° C. tight container): no form change | Crystallinity by XRPD ([2]; Table 20, batch of Example 24): Medium crystallinity | DSC, heating rate [10° C./min]: Tonset ([2]; Table 20, batch of Example 24): Tonset 194.7 °C | Melting enthalpy ([2]; Table 20, batch of Example 24): 32.4 J/g | Residual solvent by ^1H NMR, weight % ([2]; Table 20, batch of Example 24): No detectable residual solvent | Water content by Karl Fischer ([2]; Table 20, batch of Example 24): 2.5 equiv. water | Water content by Karl Fischer, weight % ([2]; Table 20, batch of Example 24): 4.6 % by weight | Melting onset (DCS, ° C.) ([2]; listed as Sodium salt Form F): Tonset 197.7 °C | Weight loss (TGA) ([2]; at 100° C.): 2.7% at 100° C., | Weight loss (TGA) ([2]; at 100° C.-170° C.): 3.2% at 100° C.- | Weight loss in % at ° C. (Thermogravimetry, heating rate [10° C./min]) ([2]; at 180° C., Table 20, batch of Example 24): 4.8% at 180 °C | Water content (by KF) ([2]; listed as Sodium salt Form F): 6.2% by % by weight | Chemical purity decrease after photostability evaluation [4]: about 1% | Bulk (XRPD) [4, 10]: No form change | Color [4, 10]: No change of color | Purity, Bulk (HPLC) [4, 10]: 97.9% | Purity, Control (HPLC) ([4]; photo test, control sample): 98.9% | Disproportionation after solubility test (IC) [5]: partially disproportionated | pH of supernatant 24 h ([5]; FaSSIF-v1, pH 6.5, 37° C.): (pH = 6.7) | Solubility 2 h [5, 11]: <LOQ | Solubility 24 h [5, 11]: <LOQ | Solubility 2 h ([5]; FeSSIF-v1, pH 5.0, 37° C.): 6.7 µg/mL | Solubility 24 h ([5]; FeSSIF-v1, pH 5.0, 37° C.): 10.4 µg/mL | pH of supernatant 24 h ([5]; FeSSIF-v1, pH 5.0, 37° C.): (pH = 5.1) | Solubility 2 h ([5]; SGF, pH 2.0, 37° C.): 10.9 µg/mL | Solubility 24 h ([5]; SGF, pH 2.0, 37° C.): 8.6 µg/mL | pH of supernatant 24 h ([5]; SGF, pH 2.0, 37° C.): (pH = 2.2) | Solubility 24 h ([5]; Water, 37° C.): 73.0 µg/mL | pH of supernatant 24 h ([5]; Water, 37° C.): (pH = 8.7) | Solubility 2 h ([5]; Water, 37° C., LOQ: 1.5 μg/mL): 98.8 µg/mL | pH dependence of solubility ([5]; aqueous media, 37° C.): pH dependent solubility | Solubility compared with Form B ([5]; especially pH 1.2 HCl solution, pH 4.5 acetate buffer, SGF, FeSSIF-v1, 37° C.): better solubility than that of the Form B | Solubility 2 h [5, 12]: 19.3 µg/mL | Solubility 24 h [5, 12]: 51.1 µg/mL | pH of supernatant 24 h [5, 12]: (pH = 1.0) | Crystallinity change after solubility test ([5]; pH 1.2 HCl solution and SGF): crystallinity decrease | pH of supernatant 24 h [5, 13]: (pH = 4.6) | Solubility 2 h [5, 14]: <LOQ | Solubility 24 h [5, 14]: 3.7 µg/mL | pH of supernatant 24 h [5, 15]: (pH = 6.9) | Solubility 2 h [5, 16]: <LOQ | Solubility 24 h [5, 16]: <LOQ | XRPD 24 h ([5]; FaSSIF-v1, pH 6.5, 37° C.): No form change | XRPD 24 h ([5]; FeSSIF-v1, pH 5.0, 37° C.): No form change | XRPD 24 h ([5]; Water, 37° C.): No form change | XRPD 24 h [5, 13]: No form change | XRPD 24 h [5, 15]: No form change | 1st desorp. Weight % change ([6]; 0% RH, 25° C.): 0.0% | 2nd sorp. Weight % change ([6]; 0% RH, 25° C.): 0.0% | 1st desorp. Weight % change ([6]; 10% RH, 25° C.): 0.6% | 2nd sorp. Weight % change ([6]; 10% RH, 25° C.): 0.5% | 1st desorp. Weight % change ([6]; 20% RH, 25° C.): 1.2% | 2nd sorp. Weight % change ([6]; 20% RH, 25° C.): 0.8% | 1st desorp. Weight % change ([6]; 30% RH, 25° C.): 2.2% | 2nd sorp. Weight % change ([6]; 30% RH, 25° C.): 1.2% | 1st desorp. Weight % change ([6]; 40% RH, 25° C.): 3.7% | 1st sorp. Weight % change ([6]; 40% RH, 25° C.): 3.1% | 2nd desorp. Weight % change ([6]; 40% RH, 25° C.): 3.9% | 2nd sorp. Weight % change ([6]; 40% RH, 25° C.): 1.5% | 1st desorp. Weight % change ([6]; 50% RH, 25° C.): 5.0% | 1st sorp. Weight % change ([6]; 50% RH, 25° C.): 3.3% | 2nd desorp. Weight % change ([6]; 50% RH, 25° C.): 5.2% | 2nd sorp. Weight % change ([6]; 50% RH, 25° C.): 2.2% | 1st desorp. Weight % change ([6]; 60% RH, 25° C.): 6.1% | 1st sorp. Weight % change ([6]; 60% RH, 25° C.): 3.4% | 2nd desorp. Weight % change ([6]; 60% RH, 25° C.): 6.2% | 2nd sorp. Weight % change ([6]; 60% RH, 25° C.): 3.5% | 1st desorp. Weight % change ([6]; 70% RH, 25° C.): 7.5% | 1st sorp. Weight % change ([6]; 70% RH, 25° C.): 3.7% | 2nd desorp. Weight % change ([6]; 70% RH, 25° C.): 7.7% | 2nd sorp. Weight % change ([6]; 70% RH, 25° C.): 5.8% | 1st desorp. Weight % change ([6]; 80% RH, 25° C.): 9.7% | 1st sorp. Weight % change ([6]; 80% RH, 25° C.): 4.1% | 2nd desorp. Weight % change ([6]; 80% RH, 25° C.): 9.9% | 2nd sorp. Weight % change ([6]; 80% RH, 25° C.): 7.9% | 1st desorp. Weight % change ([6]; 90% RH, 25° C.): 15.5% | 1st sorp. Weight % change ([6]; 90% RH, 25° C.): 7.0% | 2nd desorp. Weight % change ([6]; 90% RH, 25° C.): 16.4% | 2nd sorp. Weight % change ([6]; 90% RH, 25° C.): 13.1% | 1st desorp. Weight % change ([6]; 95% RH, 25° C.): 16.7% | 1st sorp. Weight % change ([6]; 95% RH, 25° C.): 16.7% | 2nd desorp. Weight % change ([6]; 95% RH, 25° C.): 19.6% | 2nd sorp. Weight % change ([6]; 95% RH, 25° C.): 19.6% | Form and crystallinity change after DVS test [6]: no changes in crystallinity | Form and crystallinity change after DVS test ([6]; listed as sodium salt Form F): no form change and no crystallinity decrease | Hygroscopicity ([6]; below 80% RH, 25° C.): slightly hygroscopic | Water uptake ([6]; from 80% RH to 95% RH at 25° C.): 12.6%

CCN(C)S(=O)(=O)[N-]c1ccc(F)c(Oc2ccc3ncn([C@H]4COC5(CCN(C(=O)CC6(O)CCN(c7cc8c(cc7F)c(N7CCC(=O)NC7=O)nn8C)CC6)CC5)C4)c(=O)c3c2)c1C#N.[Na+] [Compound 1 sodium salt Form D]
Melting onset (DCS, ° C.) ([2]; listed as Sodium salt Form D): Tonset 229.5 °C | Weight loss (TGA) ([2]; at 150° C.): 6.9% at | Enthalpy (DSC, J/g) ([2]; listed as Sodium salt Form D): 27.83 J/g

CCN(C)S(=O)(=O)[N-]c1ccc(F)c(Oc2ccc3ncn([C@H]4COC5(CCN(C(=O)CC6(O)CCN(c7cc8c(cc7F)c(N7CCC(=O)NC7=O)nn8C)CC6)CC5)C4)c(=O)c3c2)c1C#N.[K+] [Compound 1 potassium salt Form G]
Weight loss (TGA) ([2]; at 170° C.): 4.5% at 170° C., | Weight loss (TGA) ([2]; at 170° C.-230° C.): 4.8% at 170° C.-

CCN(C)S(=O)(=O)[N-]c1ccc(F)c(Oc2ccc3ncn([C@H]4COC5(CCN(C(=O)CC6(O)CCN(c7cc8c(cc7F)c(N7CCC(=O)NC7=O)nn8C)CC6)CC5)C4)c(=O)c3c2)c1C#N.[Na+] [Compound 1 sodium salt Form E]
Melting onset (DCS, ° C.) ([2]; listed as Sodium salt Form E): Tonset 228.7 °C | Weight loss (TGA) ([2]; at 180° C.): 10.8% at | Enthalpy (DSC, J/g) ([2]; listed as Sodium salt Form E): 26.01 J/g | Water content (by KF) ([2]; listed as Sodium salt Form E): 10.2% by % by weight
